Reference: patent US5229378A, “Glycyrrhetic acid derivatives” (Senju Pharmaceutical Co., Ltd., priority 1991, dated 1993)

What was measured:
[1] = tested on: lipid peroxide (LPO) in rat brain homogenate; assay: Antioxidant activity assay by the method of Stocks (lipid peroxide in brain homogenate, TBA method); type: biochemical, male Wistar rats; settings: LPO as MDA per mg protein, 37° C., 60 minutes
Description: The antioxidant activity of the compound of the invention was assayed by the method of Stocks.
This experiment was performed using male Wistar rats (about 10 weeks old). After perfusion for removal of blood from the brain, the brain tissue was removed and homogenized in 4 volumes of ice-cooled 0.1M phosphate-NaCl buffer (pH 7.4). The homogenate was centrifuged at 1000×g for 10 minutes and the supernatant was taken. The brain homogenate was diluted with 10 volumes of phosphate-NaCl buffer and a 500 μl portion of the dilution was incubated at 37° C. for 60 minutes. The reaction was quenched by pouring the incubate in ice-water and 490 μl of 0.1M phosphate-NaCl buffer was added. The amount of lipid peroxide (LPO) was determined by the TBA method. The amount of LPO was expressed in the amount of malondialdehyde (MDA) per mg protein. The amount of protein was determined by the method of Lowry.

[2] = tested on: formalin-induced mouse paw edema; assay: Antiinflammatory activity assay, mouse paw edema test (formalin); type: in vivo, male ddy mice; settings: 200 mg orally, 1 hour before 0.05 ml of 0.75% formalin into right hind paw
Description: The antiinflammatory activity of the compound of the invention was assayed by the mouse paw edema test. The experiment was performed in groups of 6 male ddy mice weighting 20 g-25 g. The volume of the right hind paw of each mouse was measured with a plethysmograph and 200 mg of the compound of the invention was orally administered. After 1 hour, 0.05 ml of 0.75% formalin as a phlogistic agent was injected subcutaneously into the dorsum of the right hind paw and the foot volume was measured at timed intervals. The edema rate and the percent inhibition was calculated from the values found. [formula]

COC(=O)[C@@]1(C)CC[C@]2(C)CC[C@]3(C)C(=CC(=O)[C@@H]4[C@@]5(C)CC[C@H](OP(=O)(O)OC6=C(O)[C@@H]([C@@H](O)CO)OC6=O)C(C)(C)[C@@H]5CC[C@]43C)[C@@H]2C1 [(1), Methyl 3-(L-ascorbyl-2-phosphoryl)-glycyrrhetinate]
% Inhibition ([1]; Dosage 1 × 10^-3 M): 95.3% | % Inhibition ([1]; Dosage 1 × 10^-4 M): 87.6% | % Inhibition ([2]; Hour 1): 36.36% | % Inhibition ([2]; Hour 4): 37.84%

CCOC(=O)[C@@]1(C)CC[C@]2(C)CC[C@]3(C)C(=CC(=O)[C@@H]4[C@@]5(C)CC[C@H](OP(=O)(O)OC6=C(O)[C@@H]([C@@H](O)CO)OC6=O)C(C)(C)[C@@H]5CC[C@]43C)[C@@H]2C1 [(2), Ethyl 3-(L-ascorbyl-2-phosphoryl)-glycyrrhetinate]
% Inhibition ([1]; Dosage 1 × 10^-3 M): 95.4% | % Inhibition ([1]; Dosage 1 × 10^-4 M): 44.7% | % Inhibition ([2]; Hour 1): 18.84% | % Inhibition ([2]; Hour 4): 28.72%

CCCCCCOC(=O)[C@@]1(C)CC[C@]2(C)CC[C@]3(C)C(=CC(=O)[C@@H]4[C@@]5(C)CC[C@H](OP(=O)(O)OC6=C(O)[C@@H]([C@@H](O)CO)OC6=O)C(C)(C)[C@@H]5CC[C@]43C)[C@@H]2C1 [(3), Hexyl 3-(L-ascorbyl-2-phosphoryl)-glycyrrhetinate potassium]
% Inhibition ([1]; Dosage 1 × 10^-3 M): 94.8% | % Inhibition ([1]; Dosage 1 × 10^-4 M): 82.5% | % Inhibition ([2]; Hour 1): 22.50% | % Inhibition ([2]; Hour 4): 22.07%

CCCCCCCCCCCCOC(=O)[C@@]1(C)CC[C@]2(C)CC[C@]3(C)C(=CC(=O)[C@@H]4[C@@]5(C)CC[C@H](OP(=O)(O)OC6=C(O)[C@@H]([C@@H](O)CO)OC6=O)C(C)(C)[C@@H]5CC[C@]43C)[C@@H]2C1 [(4), Lauryl 3-(L-ascorbyl-2-phosphoryl)-glycyrrhetinate potassium]
% Inhibition ([2]; Hour 1): 49.03% | % Inhibition ([2]; Hour 4): 50.57%

CCCCCCCCCCCCCCCCCCOC(=O)[C@@]1(C)CC[C@]2(C)CC[C@]3(C)C(=CC(=O)[C@@H]4[C@@]5(C)CC[C@H](OP(=O)(O)OC6=C(O)[C@@H]([C@@H](O)CO)OC6=O)C(C)(C)[C@@H]5CC[C@]43C)[C@@H]2C1 [(5), Stearyl 3-(L-ascorbyl-2-phosphoryl)-glycyrrhetinate potassium]
% Inhibition ([2]; Hour 1): 31.02% | % Inhibition ([2]; Hour 4): 34.42%

CC1(C)[C@@H](O)CC[C@]2(C)[C@H]3C(=O)C=C4[C@@H]5C[C@@](C)(C(=O)O)CC[C@]5(C)CC[C@@]4(C)[C@]3(C)CC[C@@H]12 [(6), Glycyrrhetic acid]
% Inhibition ([2]; Hour 1): 16.28% | % Inhibition ([2]; Hour 4): 25.37%
